Columns and labels:
[1] = tested on: dopaminergic neuronal cells (N27); assay: MTT cytotoxicity assay in N27 cells; format: cell-based; conditions: Rattus norvegicus, 48 h
[2] = tested on: normal human dermal fibroblasts (NHDF); assay: MTT cytotoxicity assay in NHDF cells; format: cell-based; conditions: 48 h
Liver MBCOMT = conditions: cited from earlier work
human recombinant MBCOMT = target: T1, human recombinant MBCOMT (Homo sapiens, UniProt P21964); assay: In-vitro MBCOMT enzymatic inhibition assay (metanephrine from epinephrine, HPLC)
T1 sequence (P21964 1-271): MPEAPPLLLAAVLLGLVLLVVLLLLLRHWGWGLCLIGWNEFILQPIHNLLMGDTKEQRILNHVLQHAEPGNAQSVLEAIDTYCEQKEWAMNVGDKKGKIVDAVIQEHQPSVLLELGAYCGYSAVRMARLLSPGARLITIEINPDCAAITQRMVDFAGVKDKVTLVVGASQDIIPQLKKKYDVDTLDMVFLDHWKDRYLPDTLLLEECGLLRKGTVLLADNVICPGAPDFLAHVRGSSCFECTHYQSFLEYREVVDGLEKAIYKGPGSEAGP

[3] = IC50 (nM), Recombinant MBCOMT, this work, means with 95% confidence (n = 2 to 3)
[4] = IC50, Recombinant MBCOMT, bound stated

In the case of `O=c1[nH]cc(F)c(=O)[nH]1` [Compound 5-FU, 5-fluorouracil, reference compound], the IC50 [1] is reported as 4.28 µM and the IC50 ([2]; Homo sapiens) is reported as 5.16 µM.

In the case of `Cc1ccc(C(=O)c2cc(O)c(O)c([N+](=O)[O-])c2)cc1` [Tolcapone], the IC50 (Liver MBCOMT) is given as 0.123 µM.

`C/C(=N\Cc1ccccc1)c1ccc(O)c(O)c1O` [ZINC98288] showed an IC50 [1] of 69.8 µM, an inhibition at 10 µM (human recombinant MBCOMT) of 100% and an inhibition at 100 µM (human recombinant MBCOMT) of 100%. The IC50 (human recombinant MBCOMT; [3]) was 944 nM, the IC50 (human recombinant MBCOMT; [4]) was < 1000 nM and the IC50 ([2]; Homo sapiens) was > 100 µM.

Work on `Cc1[nH]nc(-c2ccc(O)c(O)c2O)c1Oc1ccccc1` [ZINC302226] yielded an IC50 [1] of 52.5 µM, an inhibition at 10 µM (human recombinant MBCOMT) of 56% and an inhibition at 100 µM (human recombinant MBCOMT) of 100%. For the same molecule, the IC50 (human recombinant MBCOMT; [3]) was 1080 nM and the IC50 ([2]; Homo sapiens) was > 100 µM.

Work on `N#Cc1cc(O)c(O)c([N+](=O)[O-])c1` [ZINC27985035] yielded an IC50 [1] of 61.3 µM, an IC50 [2] of 40.3 µM and an IC50 ([2]; Homo sapiens, NHDF) of 40.3 µM.

With `COC(=O)c1cc(O)c(O)c([N+](=O)[O-])c1` [ZINC38175059] the inhibition at 10 µM (human recombinant MBCOMT) was 100% and the inhibition at 100 µM (human recombinant MBCOMT) was 100%.

`Cc1cc(=O)oc2c(O)c(O)c(C(=O)O)cc12` [ZINC68675288] gave an inhibition at 10 µM (human recombinant MBCOMT) of 40% and an inhibition at 100 µM (human recombinant MBCOMT) of 43%.

With `O=Cc1cc([N+](=O)[O-])c(O)c(O)c1Br` [ZINC78496496] the IC50 [1] was > 100 µM, the inhibition at 10 µM (human recombinant MBCOMT) was 81% and the inhibition at 100 µM (human recombinant MBCOMT) was 100%. The IC50 (human recombinant MBCOMT; [3]) was 470 nM, the IC50 (human recombinant MBCOMT; [4]) was < 1000 nM and the IC50 ([2]; Homo sapiens) was 92.9 µM.

`CC(C)Cn1c(-c2cc(-c3ccc(O)c(O)c3O)nc3c2c(O)nn3C(C)C)nc2ccccc21` [ZINC95473053] showed an inhibition at 10 µM (human recombinant MBCOMT) of 41% and an inhibition at 100 µM (human recombinant MBCOMT) of 46%.

Work on `C[C@@]1(C(=O)O)CC[C@]2(C)CC[C@]3(C)C4=CC(=O)c5c(cc(O)c(O)c5C=O)[C@@]4(C)CC[C@@]3(C)[C@@H]2C1` [ZINC605706834] yielded an inhibition at 10 µM (human recombinant MBCOMT) of 39% and an inhibition at 100 µM (human recombinant MBCOMT) of 34%.

Molecule `Cc1ccc(/N=C/c2c(O)c(O)cc3ccccc23)cc1` [ZINC825166420] has an IC50 [1] of 17 µM, an inhibition at 10 µM (human recombinant MBCOMT) of 72% and an inhibition at 100 µM (human recombinant MBCOMT) of 100%. It also gave an IC50 (human recombinant MBCOMT; [3]) of 1540 nM and an IC50 ([2]; Homo sapiens) of 12.1 µM.

For `COc1ccc(-c2nc(-c3cccc(O)c3O)[nH]c2-c2oc(C)cc(=O)c2O)cc1` [ZINC1547205762], the inhibition at 10 µM (human recombinant MBCOMT) was 14% and the inhibition at 100 µM (human recombinant MBCOMT) was 27%.

Reference: article PMC8780549, “Discovery of Small Molecules as Membrane-Bound Catechol-O-methyltransferase Inhibitors with Interest in Parkinson’s Disease: Pharmacophore Modeling, Molecular Docking and In Vitro Experimental Validation Studies” (Pharmaceuticals, 2021)
